From patent US20250248405A1, “COMBINATIONS FOR CONTROLLING POST-HARVEST PATHOGENS IN AGRICULTURAL PRODUCE AND METHOD OF USE THEREOF” (Decco Worldwide Post Harvest Holding BV, priority 2024, published 2025)

Assays:
[1] = test system: Candida oleophila strain O; test: Compatibility test on fungicide-amended PDA solid medium (colony count of biocontrol agent); format: cell-based; conditions: for Compatibility: Candida oleophila strain O 10^2-10^3 cfu/ml
Procedure: “Compatibility” as used herein the specification, means how well a fungicide mixes with other substances. It's important to know how two formulations interact with other to avoid problems like reduced effectiveness or increased toxicity and herein measured by the unaffected colony count of biocontrol agent upon mixing with chemical fungicides.
The disclosure will be illustrated with reference to the following examples: Compatibility of biocontrol agent: Candida oleophila strain O was tested with various preharvest and post-harvest fungicides to test if they have any negative effect on Candida oleophila strain activity. The dry mass of a single Candida oleophila cell, including strain O, is approximately 47.65 picograms (pg) (48 pg=48×10^−9 mg), which is a typical mass for a single yeast cell.
1 gram of biomass (10^10 cfu/gm) was activated in 100 ml of water for 45 minutes. 1 ml of the biomass suspension was mixed with 99 ml of lactate dilution (2 g calcium lactate diluted in 99 ml water). Biomass solution was further diluted to 100 and 1000 folds and 100 μl of the diluted biomass solution was plated on synthetic fungicide amended PDA (Potato dextrose agar) plates, which yields around 10^3 and 10^2 cfu/plate, respectively, in fully compatible mixtures. Plates were incubated at 23° C. and the growth of CFUs (colony forming units) and total number of Candida oleophila colonies were counted after 5-7 days.
Pesticide amended PDA plates were prepared by inoculating pesticide on a Potato dextrose agar plate at no treatment (control), standard (full dose) and reduced (half dose) depending on the treatments. For e.g., if a pesticide has standard dose concentration of 5 ppm, then plates were prepared at 0 ppm, 2.5 ppm and 5 ppm. with that pesticide.

Neofabraea perennans = test: Artificial wound inoculation of Fuji apples, bull's eye rot decay; format: in vivo; conditions: solo at full rate (TBZ 1.45 g/L, PYR 1.35 g/L, FDL 0.85 g/L, C. oleophila 0.33 g/L), control 98
Procedure: (§1) Several lab trials were conducted to test efficacy of Candida oleophila strain O against major post-harvest pathogens of pome (Blue mold: Penicillium expansum, Gray mold: Botrytis cinerea, Bull's eye rot: Neofabraea perennans and Mucor rot and to test synergistic interaction of Candida oleophila strain O with 3 post-harvest fungicides of pome fruits namely Fludioxonil (FDL), Pyrimethanil (PYR) and Thiabendazole (TBZ).
(§2) Candida oleophila strain O was applied solo and in combination with three different post-harvest fungicides at full rate (FR) and half label rate (HR) (for conventional fungicides) to study its compatibility and synergist interaction. Testing was done on artificially/lab inoculated and naturally infected fruits.
(§3) For artificial inoculations through wound, washed fruits were wounded twice at the stem end region and were kept for 30 mins to dry the juice from the wound site. Fruits were fully submerged in fungicide solutions for 1 min and then transferred to a perforated basket to drip dry. Fruits were the transferred to the fruit trays and were left to dry overnight. 5×10^4 fungal spores/mL spore suspension of post-harvest pathogens as indicated above was prepared for inoculation. 50 μL spore suspension was transferred in each wound using a pipette and was left to dry for 1 hr at room temperature. Fruits were stored in cold storage. Fruit decay was monitored periodically, when decay on control fruit was above 80%, the disease incidence and severity was evaluated on all the treatments.

Mucor sp. = test: Artificial wound inoculation of Fuji apples, Mucor rot decay; format: in vivo; conditions: solo at full rate (TBZ 1.45 g/L, PYR 1.35 g/L, FDL 0.85 g/L, C. oleophila 0.33 g/L), control 100
Procedure: as §1, §2, §3

Penicillium expansum = test: Artificial wound inoculation of Fuji apples, blue mold decay; format: in vivo; conditions: solo at full rate (TBZ 1.45 g/L, PYR 1.35 g/L, FDL 0.85 g/L, C. oleophila 0.33 g/L), control 94
Procedure: as §1, §2, §3

Botrytis cinerea = test: Artificial wound inoculation of Fuji apples, gray mold decay; format: in vivo; conditions: solo at full rate (PYR 1.35 g/L, FDL 0.85 g/L, C. oleophila 0.33 g/L), control 47
Procedure: as §1, §2
as §3, with “50 μL spore suspension was transferred in each wound using a pipette and was left to dry for 1 hr at room temperature. Fruits were stored in cold storage.” left out

[2] = test system: Candida oleophila strain O; test: Compatibility test on fungicide-amended PDA solid medium (colony count of biocontrol agent); format: cell-based; conditions: Candida oleophila strain O 10^6 cfu/ml

Structure (SMILES)	Compatibility of Candida oleophila strain O with the fungicide (text summary of Table 1) [1]	Decay severity (%) Neofabrea sp. (Neofabraea perennans)	Decay severity (%) Mucor sp. (Mucor sp.)	Decay severity (%) Penicillium sp. (Penicillium expansum)	also measured
O=C(Nc1ccccc1-c1ccc(Cl)cc1)c1cccnc1Cl [Boscalid]	compatible				
[Cl-].[Cu+2].[Cu+2].[OH-].[OH-].[OH-] [Copper oxychloride]	compatible				
O=S(=O)([O-])[O-].[Cu+2] [Copper sulphate]	compatible				
N#Cc1c[nH]cc1-c1cccc2c1OC(F)(F)O2 [Fludioxonil]	compatible	83%	100%	0%	Decay severity (%) Botrytis sp. (Botrytis cinerea): 2%
Cn1cc(C(=O)Nc2ccccc2-c2cc(F)c(F)c(F)c2)c(C(F)F)n1 [Fluxapyroxad]	compatible				Compatibility ([1]; fungicide 300 g/L a.i., tested dosage 0.5-2 ppm): YES; Compatibility ([1]; fungicide 300 g/L a.i., tested dosage 0.9 ppm): YES
COC(=O)N(OC)c1ccccc1COc1ccn(-c2ccc(Cl)cc2)n1 [Pyraclostrobin]	compatible				Compatibility ([1]; fungicide 250 g/L a.i., tested dosage 2-8 ppm): YES
Cc1cc(C)nc(Nc2ccccc2)n1 [Pyrimethanil]	compatible	70%	100%	7%	Compatibility ([2]; fungicide 600 g/L a.i., tested dosage 800 ppm): YES; Decay severity (%) Botrytis sp. (Botrytis cinerea): 7%
c1ccc2[nH]c(-c3cscn3)nc2c1 [Thiabendazole]	compatible	22%	100%	4%	Compatibility ([2]; fungicide 500 g/L a.i., tested dosage 200 ppm): YES
COC(=O)NC(=S)Nc1ccccc1NC(=S)NC(=O)OC [Thiophanate-methyl]	compatible				
